From PMC7465669, “Screening of Heteroaromatic Scaffolds against Cystathionine Beta-Synthase Enables Identification of Substituted Pyrazolo[3,4-c]Pyridines as Potent and Selective Orthosteric Inhibitors” (Molecules, 2020) come the findings set out here.

The test addresses T1, cystathionine β-synthase (CBS) (Homo sapiens, UniProt P35520).
T1 construct: full-length human CBS, GST-fusion
T1 sequence (P35520 1-551): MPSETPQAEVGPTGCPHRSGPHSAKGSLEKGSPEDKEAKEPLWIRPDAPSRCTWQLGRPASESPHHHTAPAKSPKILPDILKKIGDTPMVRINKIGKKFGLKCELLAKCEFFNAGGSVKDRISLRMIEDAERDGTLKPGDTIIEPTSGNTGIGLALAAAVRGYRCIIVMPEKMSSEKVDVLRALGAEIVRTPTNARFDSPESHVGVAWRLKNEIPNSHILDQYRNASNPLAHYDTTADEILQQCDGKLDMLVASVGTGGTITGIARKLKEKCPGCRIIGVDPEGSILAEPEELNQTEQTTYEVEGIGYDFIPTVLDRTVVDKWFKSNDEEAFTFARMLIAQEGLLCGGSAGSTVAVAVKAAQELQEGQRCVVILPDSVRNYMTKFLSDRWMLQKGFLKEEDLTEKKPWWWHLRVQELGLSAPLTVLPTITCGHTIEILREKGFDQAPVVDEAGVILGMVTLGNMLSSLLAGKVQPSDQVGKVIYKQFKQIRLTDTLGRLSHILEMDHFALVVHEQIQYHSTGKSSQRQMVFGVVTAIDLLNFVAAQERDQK
The test can be described thus: methylene blue H2S assay, recombinant enzyme; confirmed by AzMC assay (IC50 […]). The format is biochemical.

The IC50 is the midpoint of a concentration-inhibition curve. Regarding `COc1ccc(Cn2ncc3cc(Nc4ccc(N5CCN(C)CC5)cc4)nc(N4CCN(C)CC4)c32)cc1` [compound 1, 1], the IC50 came to 11 µM.
